Reference: patent publication US10308595B2, “Albicidin derivatives, their use and synthesis” (priority 2013, dated 2019)
Where two headings read alike, the source gives them in different places.

Legend:
Assay type in all cases: cell-based
[1] = test system: Escherichia coli albi-res (Montpellier); test: Test agar plates (disc diffusion), diameter of inhibition area; conditions: 18 h, read-out: diameter of inhibition, Escherichia coli albi-res (Montpellier)
Procedure: (§1) The dry compounds were dissolved in DMSO (1 mg/ml) and the so obtained stock solution was diluted with sterilized Millipore water 1:10 and 1:100
(§2) 20 μl of cryo stock of each strain were inoculated to 20 ml of Mueller-Hinton medium and grown overnight at 30° C. or 37° C. on a vertical shaker with 160 rpm. The inoculum for the test was adjusted by the 0.5 McFarland Standard (OD625 from 0.08 to 0.1)
Escherichia coli albi-res (Montpellier) [gram. Neg.] Medium: MHB/37° C.
(§3) Every plate is prepared by pouring 10 ml Mueller-Hinton agar into standard petri dishes (diam 94 mm). The so obtained Mueller-Hinton plates are overlayed with 4 ml Mueller-Hinton soft agar containing 100 μl suspension of the test strain.
(§4) After the soft agar turned solid, sterile susceptibility test discs were circular placed on the agar and on every test disc 10 μl compound was added. Each concentration is tested in triplicate. The agar dishes were incubated for 18 hours at a temperature of 30° C. or 37° C. Results are obtained by measuring the diameter of inhibition area around each test disc.

[2] = test system: Staphylococcus aureus DSM 2569; test: as above; conditions: DSM2569, 18 h, test agar plates, active substance 1 mg/ml, "more than 1 cm and more than 2 cm" [sic], read-out: diameter of inhibition, Staphylococcus aureus DSM 2569
Procedure: as §1, §2
Staphylococcus aureus DSM 2569 [gram. Pos.] Medium: MHB/37° C.
as §3, §4

[3] = test system: Micrococcus luteus DSM1790; test: as above; conditions: Micrococcus luteus, DSM1790, 18 h, read-out: diameter of inhibition, Micrococcus luteus DSM1790
Procedure: as §1, §2
Micrococcus luteus DSM1790 [gram. Pos.] Medium: MHB/37° C.
as §3, §4

[4] = test system: Pseudomonas aeruginosa DSM1117; test: as above; conditions: DSM1117, 18 h, read-out: diameter of inhibition, Pseudomonas aeruginosa DSM1117
Procedure: as §1, §2
Pseudomonas aeruginosa DSM1117 [gram. Neg.] Medium: MHB/37° C.
as §3, §4

Bacillus subtilis DSM10 = test: as above; conditions: Bacillus subtilis, DSM10, 18 h, read-out: diameter of inhibition, Bacillus subtilis DSM10
Procedure: as §1, §2
Bacillus subtilis DSM10 [gram. Pos.] Medium: MHB/30° C.
as §3, §4

Escherichia coli DH5α = test: as above; conditions: 18 h, read-out: diameter of inhibition, Escherichia coli DH5α
Procedure: as §1, §2
Escherichia coli DH5α [gram. Neg.] Medium: MHB/37° C.
as §3, §4

[5] = test system: Salmonella enteritidis (PEG-10-3-58); test: EN-ISO standard test (ISO 20776-1), MIC
Procedure: (§5) Furthermore, compounds were tested against the following bacteria
Salmonella enteritidis (PEG-10-3-58),
(§6) according to EN-ISO standard (ISO 20776-1: 2006. Clinical laboratory testing and in vitro diagnostic test systems—Susceptibility testing of infectious agents and evaluation of performance of antimicrobial susceptibility test devices—Part 1:Reference method for testing the in vitro activity of antimicrobial agents against rapidly growing aerobic bacteria involved in infectious diseases; German version EN ISO 20776-1:2006. Beuth-Verlag, Berlin).

[6] = test system: Escherichia coli (ATCC 25922, 100-2-49 and 100-2-56); test: EN-ISO standard test (ISO 20776-1), MIC
Procedure: as §5, §6

[7] = test agar plates, active substance 1 mg/ml, more than 1 cm or more than 2 cm
[8] = test agar plates, active substance 1 mg/ml, "more than 1 cm and more than 2 cm" [sic]
[9] = test agar plates, active substance 1 mg/ml, more than 1 cm or more than 3.9 cm [sic]

| SMILES | zone of inhibition at 1000 µg/mL [1, 7] [mm] | zone of inhibition at 1000 µg/mL [2] [mm] | zone of inhibition at 1000 µg/mL [3, 8] [mm] | zone of inhibition at 1000 µg/mL [4, 7] [mm] | zone of inhibition at 1000 µg/mL (Bacillus subtilis DSM10; [9]) [mm] | zone of inhibition at 1000 µg/mL (Escherichia coli DH5α; [7]) [mm] | further results |
| --- | --- | --- | --- | --- | --- | --- | --- |
| COc1c(NC(=O)c2ccc(NC(=O)c3ccc(NC(=O)C(CC#N)NC(=O)c4ccc(NC(=O)/C(C)=C/c5ccccc5)cc4)cc3)c(OC)c2O)ccc(C(=O)O)c1O (centres unmarked) [Compound 2] | > 10 | > 10 | > 10 | > 10 | > 10 | > 10 |  |
| COc1c(NC(=O)c2ccc(NC(=O)c3ccc(NC(=O)C(CC#N)NC(=O)c4ccc(NC(=O)/C=C/c5ccccc5)cc4)cc3)c(OC)c2O)ccc(C(=O)O)c1O (centres unmarked) [Compound 3] | > 10 | > 10 | > 10 | > 10 | > 10 | > 10 |  |
| COc1c(NC(=O)c2ccc(NC(=O)c3ccc(NC(=O)C(CC#N)NC(=O)c4ccc(NC(=O)/C(C)=C/c5ccc(C(F)(F)F)cc5)cc4)cc3)c(OC)c2O)ccc(C(=O)O)c1O (centres unmarked) [Compound 4] | > 10 | > 10 | > 10 | > 10 | > 10 | > 10 |  |
| COc1c(NC(=O)c2ccc(NC(=O)c3ccc(NC(=O)C(CC#N)NC(=O)c4ccc(NC(=O)c5ccc(O)cc5)cc4)cc3)c(OC)c2O)ccc(C(=O)O)c1O (centres unmarked) [Compound 7] | > 10 | > 10 |  | > 10 | > 10 |  |  |
| COc1c(NC(=O)c2ccc(NC(=O)c3ccc(NC(=O)C(CC#N)NC(=O)c4ccc(NC(=O)c5ccc(N6CCOCC6)cc5)cc4)cc3)c(OC)c2O)ccc(C(=O)O)c1O (centres unmarked) [Compound 8] | > 10 | > 10 |  |  | > 10 | > 10 |  |
| COc1c(NC(=O)c2ccc(NC(=O)c3ccc(NC(=O)C(CC#N)NC(=O)c4ccc(NC(=O)c5ccc(-c6ccccc6)cc5)cc4)cc3)c(OC)c2O)ccc(C(=O)O)c1O (centres unmarked) [Compound 9] | > 10 | > 10 | > 10 |  | > 10 | > 10 |  |
| COc1ccc(C(=O)Nc2ccc(C(=O)NC(CC#N)C(=O)Nc3ccc(C(=O)Nc4ccc(C(=O)Nc5ccc(C(=O)O)c(O)c5OC)c(O)c4OC)cc3)cc2)cc1 (centres unmarked) [Compound 10] | > 10 | > 10 | > 10 | > 10 | > 10 | > 10 |  |
| COc1c(NC(=O)c2ccc(NC(=O)c3ccc(NC(=O)C(CC#N)NC(=O)c4ccc(NC(=O)c5ccc(C#N)cc5)cc4)cc3)c(OC)c2O)ccc(C(=O)O)c1O (centres unmarked) [Compound 11] | > 10 | > 10 | > 10 | > 10 | > 10 | > 10 |  |
| COc1c(NC(=O)c2ccc(NC(=O)c3ccc(NC(=O)C(CC#N)NC(=O)c4ccc(NC(=O)c5cccc(C(F)(F)F)c5)cc4)cc3)c(OC)c2O)ccc(C(=O)O)c1O (centres unmarked) [Compound 12] | > 10 | > 10 | > 10 | > 10 | > 10 | > 10 |  |
| COc1c(NC(=O)c2ccc(NC(=O)c3ccc(NC(=O)C(CC#N)NC(=O)c4ccc(NC(=O)c5cccc(-c6ccccc6)c5)cc4)cc3)c(OC)c2O)ccc(C(=O)O)c1O (centres unmarked) [Compound 13] | > 10 |  | > 10 | > 10 | > 10 | > 10 |  |
| COc1c(NC(=O)c2ccc(NC(=O)c3ccc(NC(=O)C(CC#N)NC(=O)c4ccc(NC(=O)c5ccc[nH]5)cc4)cc3)c(OC)c2O)ccc(C(=O)O)c1O (centres unmarked) [Compound 14] | > 10 |  |  |  | > 10 |  |  |
| COc1c(NC(=O)c2ccc(NC(=O)c3ccc(NC(=O)C(CC#N)NC(=O)c4ccc(NC(=O)c5ccco5)cc4)cc3)c(OC)c2O)ccc(C(=O)O)c1O (centres unmarked) [Compound 15] | > 10 | > 10 |  |  | > 10 |  |  |
| COc1c(NC(=O)c2ccc(NC(=O)c3ccc(NC(=O)C(CC#N)NC(=O)c4ccc(NC(=O)Cc5ccc(Cl)cc5)cc4)cc3)c(OC)c2O)ccc(C(=O)O)c1O (centres unmarked) [Compound 26] |  |  |  | > 10 | > 10 |  | zone of inhibition at 1000 µg/mL [1]: > 10 mm |
| COc1c(NC(=O)c2ccc(NC(=O)c3ccc(NC(=O)C(CC#N)NC(=O)c4ccc(NC(=O)CCc5ccccn5)cc4)cc3)c(OC)c2O)ccc(C(=O)O)c1O (centres unmarked) [Compound 29] |  |  |  | > 10 | > 10 |  | zone of inhibition at 1000 µg/mL [1]: > 10 mm |
| CCCCCC(=O)Nc1ccc(C(=O)NC(CC#N)C(=O)Nc2ccc(C(=O)Nc3ccc(C(=O)Nc4ccc(C(=O)O)c(O)c4OC)c(O)c3OC)cc2)cc1 (centres unmarked) [Compound 34] |  | > 10 |  | > 10 | > 10 | > 10 | zone of inhibition at 1000 µg/mL [1]: > 10 mm |
| COc1c(NC(=O)c2ccc(NC(=O)c3ccc(NC(=O)C(CC#N)NC(=O)c4ccc(NC(=O)C5CC5)cc4)cc3)c(OC)c2O)ccc(C(=O)O)c1O (centres unmarked) [Compound 38] | > 10 |  |  |  | > 10 |  |  |
| CCC(CC)C(=O)Nc1ccc(C(=O)NC(CC#N)C(=O)Nc2ccc(C(=O)Nc3ccc(C(=O)Nc4ccc(C(=O)O)c(O)c4OC)c(O)c3OC)cc2)cc1 (centres unmarked) [Compound 39] | > 10 |  |  |  | > 10 |  |  |
| COc1c(NC(=O)c2ccc(NC(=O)c3ccc(NC(=O)C(CC#N)NC(=O)c4ccc(NC(=O)C(C)(C)C)cc4)cc3)c(OC)c2O)ccc(C(=O)O)c1O (centres unmarked) [Compound 40] | > 10 |  |  |  | > 10 |  |  |
| COc1c(NC(=O)c2ccc(NC(=O)c3ccc(NC(=O)C(CC#N)NC(=O)c4ccc(NC(=O)C5CCCC5)cc4)cc3)c(OC)c2O)ccc(C(=O)O)c1O (centres unmarked) [Compound 41] | > 10 |  |  |  | > 10 |  |  |
| COc1c(NC(=O)c2ccc(NC(=O)c3ccc(NC(=O)C(CC#N)NC(=O)c4ccc(NC(=O)Nc5ccccc5)cc4)cc3)c(OC)c2O)ccc(C(=O)O)c1O (centres unmarked) [Compound 43] |  |  |  | > 10 | > 10 |  | zone of inhibition at 1000 µg/mL [1]: > 10 mm; MIC values, in words [5]: good to very good; MIC values (minimal inhibitory concentration), in words [6]: good to very good |
| COc1c(NC(=O)c2ccc(NC(=O)c3ccc(NC(=O)C(CC#N)NC(=O)c4ccc(NCc5ccc(-c6ccccc6)cc5)cc4)cc3)c(OC)c2O)ccc(C(=O)O)c1O (centres unmarked) [Compound 44] |  |  |  |  |  |  | zone of inhibition at 1000 µg/mL [1]: > 10 mm; zone of inhibition at 1000 µg/mL [3]: > 10 mm; zone of inhibition at 1000 µg/mL [4]: > 10 mm; zone of inhibition at 1000 µg/mL (Bacillus subtilis DSM10): > 10 mm; zone of inhibition at 1000 µg/mL (Escherichia coli DH5α): > 10 mm |
| COc1ccc(S(=O)(=O)Nc2ccc(C(=O)NC(CC#N)C(=O)Nc3ccc(C(=O)Nc4ccc(C(=O)Nc5ccc(C(=O)O)c(O)c5OC)c(O)c4OC)cc3)cc2)cc1 (centres unmarked) [Compound 49] |  |  |  |  |  |  | zone of inhibition at 1000 µg/mL [1]: > 10 mm |
